In paper PMC12518693, “Potent Fluorescent Probe for Target‐Engagement Studies of Allosteric Pyruvate Kinase Modulators” (Angewandte Chemie (International Ed. in English), 2025):

Assays:
HEK293 cells [1] = assay: HEK293 cell viability assay (CellTiter-Glo 2.0); type: cell-based; conditions: 2 h
Procedure: Finally, the effects of tracer IV on cell viability were assessed. HEK293 cells were treated with IV at concentrations of 0, 0.01, 0.1, 1, and 10 µM for 2 h, after which cells were lysed, and intracellular ATP levels were quantified using the CellTiter‐Glo 2.0 assay (Figure S8a).
Figure S8. Cell viability assay (CellTiter-Glo 2.0) of HEK293 cells treated with different concentrations of tracer IV. (A) Cell viability assay performed on HEK293 cells incubated for 2 h with different concentrations of tracer IV or DMSO (0 nM IV) in FluoroBrite™ DMEM complete medium. Results are reported as relative luminescence values (mean ± SE, n=4, One Way ANOVA followed by Dunnett´s multiple comparison test). […] Results are reported as relative luminescence values (mean ± SE, n=4, One Way ANOVA followed by Dunnett´s multiple comparison test). […] Results are reported as relative luminescence values (mean ± SE, n=4, One Way ANOVA followed by Dunnett´s multiple comparison test).
The effect of tracer IV on cell viability was assessed using CellTiter-Glo 2.0 assay (Promega). This is a method that determines the number of viable cells by quantifying the amount of ATP in the metabolically active cells. […] Mono-oxygenation of luciferin catalyzed by luciferase in the presence of ATP will generate light which could be measured by luminometer. […]

HEK293 cells [2] = assay: Live-cell uptake by confocal microscopy; type: cell-based; conditions: live HEK293, 1 µM
Procedure: To investigate the cellular permeability of IV, we employed confocal microscopy to monitor the uptake of the tracer in live HEK293 cells over time. The tracer was added to live cells at a final concentration of 1 µM, and real‐time fluorescence intensity was recorded immediately after addition. A rapid increase in fluorescence was observed, reaching a stable plateau approximately 4 min after addition, indicating fast cellular uptake and […] (Figure 3a and Video S1).
Fluorescence intensity was then continuously monitored for 60 min. To assess potential fluorophore degradation, corrected total cell fluorescence (CTCF) was calculated at each time point (Figure S6). Fluorescence values from regions of interest (ROIs) were integrated and normalized cell area and background signals in the absence of tracer.
To attach HEK293 cells to the bottom of 24-well imaging plates (Ibidi 82427), a Cell-Tak adhesive mixture (Corning, 354240) was used. It was prepared with a mixture of sodium bicarbonate (75 g/L), sodium hydroxide (40 g/L) and Cell-Tak (2.03 g/L) at a volume ratio of 291:5:4. For each well, 500 μL of Cell-Tak mix was added and incubated at room temperature for 30 min. […] For analysing intracellular fluorescence and distribution of IV within HEK293 cells, Z-stack images (22 images) were acquired after 5, 15, 30 and 60 min of incubation across a physical depth of ~22 μm. […]

CN(C)c1ccc(S(=O)(=O)c2ccc3c(=O)n(Cc4cc[nH]n4)ncc3c2)c2nonc12 [Compound IV, 2-((1H-Pyrazol-3-yl)methyl)-6-((7-(dimethylamino)benzo[c][1,2,5]oxadiazol-4-yl)sulfonyl)phthalazin-1(2H)-one]
effect on cell viability (intracellular ATP) (HEK293 cells [1]; HEK293, 0.01-10 µM): does not affect cell viability | effect on viability of transfected cells (HEK293 cells [1]; HEK293 transfected with PKLNluc or Nluc plasmids, up to highest tested concentration): did not affect the viability | time to stable fluorescence plateau after addition (HEK293 cells [2]): approximately 4 min
